Laboratory results reported in patent US8367737B2, “Method of using biothionol and biothionol-like compounds as anti-angiogenic agents” (Southern Research Institute, priority 2007, dated 2013).
Counter-ions that a name gives are not always drawn.

Key:
[1] = test system: Endothelial cells (HUVEC); assay: Endothelial cell migration assay; assay type: cell-based; settings: Homo sapiens, read-out: Inhibition in Endothlial migration
Procedure: Endothelial cell migration is a key step of the angiogenesis process, which is crucial for on-site recruitment of blood vessel formation. The trans-well filter/inserts chamber of Biocoat Endothelial Cell Migration Angiogenesis System (BD Biosciences) is used for endothelial cell migration assay, which is a 24-Transwell chamber plate containing 3-μm pore size inserts coated with human fibronectin. The inserts are incubated at 37° C. with 0.1% bovine serum albumin containing endothelial cell basal medium for 1 hour. Endothelial cells (HUVEC) are starved with 0.1% bovine serum albumin in endothelial cell basal medium for 4 to 5 hours before the cell harvest and then seeded (1×10^5 per well) in upper chambers of the Transwell plate with various treatments in 100 ul of 0.1% bovine serum albumin in endothelial cell basal medium. The full growth medium that contains various chemoattractants is added in the lower chambers. The cells are allowed to migrate for 22±1 hours at 37° C. Unmigrated cells at the inside of the inserts are carefully removed with a Q-tip. Migrated cells at the lower part of the Transwell inserts are then fixed with 4% paraformaldehyde, stained with Hoechst 33342, and photographed under a fluorescent microscope. Three microscopic view fields of each filter/insert are analyzed for the number of migrated cells. Triplicate filter/insert chamber cultures are carried for each test concentration and control.

[2] = test system: Endothelial cells (HUVEC); assay: Endothelial tube formation assay; assay type: cell-based; settings: Homo sapiens, read-out: Inhibition in Endothlia Tube-Formation
Procedure: Human endothelial cells are cultured in vitro on extracellular matrix, which stimulates the attachment and differentiation of endothelial cells into tubules. The endothelial tube formation assay is based on this phenomenon. Endothelial cells (HUVEC) are seeded (1.5×10^4 per well) in a 96-well plates coated with extracellular matrix and treated with the target compounds at different concentrations with the full growth medium in triplicate. The cells are allowed to form endothelial tubes at 37° C. for about 18 hours and photographed under an inverted light microscope. The tubule lengths are quantified using image analysis software, Image-Pro Plus (Media Cybernetics, Inc., Silver Spring, Md.). Data are expressed as average tube lengths of three view fields for each well and triplicate wells for each treatment condition. IC50 values are calculated based on the dose curve.

[3] = test system: Chicken embryo chorioallantoic membrane; assay: Chick chorioallantoic membrane (CAM) assay; assay type: in vivo; settings: 10 μg; vascular density index
From the text: Chicken embryo chorioallantoic membrane provides an ideal in vivo model for the physiologic process of angiogenesis. Angiogenic modulators applied on methylcellulose discs placed on top of chicken embryo chorioallantoic membrane are able to alter the development of new blood vasculature. See Staton et al, Current Methods for Assaying Angiogenesis in vitro and in vivo, INT. J. EXP. PATHOL., 85:233-48 (2004), which is incorporated herein by reference in its entirety. The angiogenesis chorioallantoic membrane assay is used for ex vivo evaluation of the anti-angiogenic potential of synthetic compounds. Fertilized chicken eggs are incubated at 37.5° C. in a humidified egg incubator with forced air circulation. On embryo Day 3, eggs are cracked open and embryos are transferred into […] Petri plates to continue their development in a cell culture incubator at 37.5° C. Pre-made methylcellulose discs in about 2 mm in diameter are gently implanted on top of embryo chorioallantoic membrane on embryonic Day 5 and then testing compound in solution or control vehicle is applied on top of methylcellulose disc. The embryos are incubated for two more days in the cell culture incubator. The chorioallantoic membranes are examined and quantitatively analyzed for new blood vessel formation at embryonic Day 7. The treatment effects on angiogenesis are evaluated by determining vascular density index (VDI) of each CAM with viable chicken embryos. The VDI represents the number of intersections made by blood vessels with three equidistant concentric circles on the area covered by methylcellulose discs by using Image Pro Plus software. The data are expressed as average VDI based on the quantitative analysis for each treatment group (N≧5) with stander deviation.

[4] = test system: arterial endothelia, such as HAEC and HPAEC; assay: Cell proliferation assay (CellTiter-Glo), arterial endothelia; assay type: cell-based; settings: Homo sapiens; 72 hours of treatment, growth medium
Procedure: (§1) Human primary cell lines, arterial endothelia, such as HAEC and HPAEC, venous endothelia HUVEC (from Cambrex BioScience Rockland Inc.), and lung fibroblasts LL47 (from the American Type Culture Collection) are cultured by following the instruction and used to evaluate the target compounds for their differential activity against human endothelia verses fibroblasts by CellTiter-Glo Luminescent Cell viability Assay. This assay, generating luminescent signals, is based on quantification of ATP levels in cell cultures. Amount of ATP produced in cell culture reflects the number of viable cells. […] Cells are seeded in 96-well plates with their growth medium, about 5×10^3 cell per well. After 24 hours, various doses of the target compounds are added to the cultures, having four replicates for each dose. After 72 hours of treatment, CellTiter-Glo reagent is added to the cultures following the manufacturer's instruction and luminescence is measured. The control groups are given DMSO vehicle only. IC50s of target compounds for endothelia and fibroblasts proliferation in their growth medium are determined based on the dose response curve and plotted against the range of concentrations.

venous endothelia HUVEC = assay: Cell proliferation assay (CellTiter-Glo), venous endothelia; assay type: cell-based; settings: Homo sapiens, 72 hours of treatment, growth medium
Procedure: as §1

lung fibroblasts LL47 = assay: Cell proliferation assay (CellTiter-Glo), fibroblasts; assay type: cell-based; settings: Homo sapiens, Fibroblast; 72 hours of treatment, growth medium
Procedure: as §1

SMILES | inhibition at 2 µM [1] [%] | inhibition at 8 µM [1] [%] | inhibition at 2 µM [2] [%] | inhibition at 8 µM [2] [%] | Inhibition in CAM Assay [3] [%] | IC50 [4] [µM] | IC50 (venous endothelia HUVEC) [µM] | IC50 (lung fibroblasts LL47) [µM]
CCCCc1oc2ccccc2c1C(=O)c1cc(I)c(OCCN(CC)CC)c(I)c1 [Amiodarone hydrochloride] | 36 | 38 | 33 | 33 | 27 |  |  | 
Oc1c(Cl)cc(Cl)cc1Sc1cc(Cl)cc(Cl)c1O [Bithionol] | 5 | 100 | 19 | 38 | 30 | 2 | 6 | 10.5
CN(C)CCCN1c2ccccc2CCc2ccc(Cl)cc21 [Clomipramine hydrochloride] | 58 | 63 | 12 | 26 | 19 |  |  | 
OCCN1CCN(CCCN2c3ccccc3Sc3ccc(Cl)cc32)CC1 [Perphenazine] | 43 | 46 | 7 | 22 |  | 4.2 | 11.1 | 10.8
Cc1nc2sccn2c(=O)c1CCN1CCC(=C(c2ccc(F)cc2)c2ccc(F)cc2)CC1 [Ritanserin] | 55 | 65 | 11 | 33 | 21 | 11 | 10.5 | > 50
CC(C)(C)c1ccc(C(O)CCCN2CCC(C(O)(c3ccccc3)c3ccccc3)CC2)cc1 (centres unmarked) [Terfenadine] | 34 | 100 | 20 | 43 | 28 | 3 | 5.5 | 7
